# From article PMC10065799, “High-throughput profiling of sequence recognition by tyrosine kinases and SH2 domains using bacterial peptide display” (eLife, 2023)
# Square brackets hold non-standard residues; d marks the D form. pY = N[C@@H](Cc1ccc(OP(=O)(O)O)cc1)C(=O)O
# B1: ACTA1_Y171_YF phosphopeptide Ac-QPIFEG(pY)ALPHAG-NH2 (peptide)
# peptide: Ac-QPIFEG[pY]ALPHAG-NH2
# SMILES: CC[C@H](C)[C@H](NC(=O)[C@@H]1CCCN1C(=O)[C@H](CCC(N)=O)NC(C)=O)C(=O)N[C@@H](Cc1ccccc1)C(=O)N[C@@H](CCC(=O)O)C(=O)NCC(=O)N[C@@H](Cc1ccc(OP(=O)(O)O)cc1)C(=O)N[C@@H](C)C(=O)N[C@@H](CC(C)C)C(=O)N1CCC[C@H]1C(=O)N[C@@H](Cc1c[nH]cn1)C(=O)N[C@@H](C)C(=O)NCC(N)=O
# notes: source: synthetic peptide (synthesized in-house, RP-HPLC purified)
# B2: ACTA1_Y171_A172G_YF phosphopeptide Ac-QPIFEG(pY)GLPHAG-NH2 (peptide)
# peptide: Ac-QPIFEG[pY]GLPHAG-NH2
# SMILES: CC[C@H](C)[C@H](NC(=O)[C@@H]1CCCN1C(=O)[C@H](CCC(N)=O)NC(C)=O)C(=O)N[C@@H](Cc1ccccc1)C(=O)N[C@@H](CCC(=O)O)C(=O)NCC(=O)N[C@@H](Cc1ccc(OP(=O)(O)O)cc1)C(=O)NCC(=O)N[C@@H](CC(C)C)C(=O)N1CCC[C@H]1C(=O)N[C@@H](Cc1c[nH]cn1)C(=O)N[C@@H](C)C(=O)NCC(N)=O
# notes: as for B1
# B3: CBS_Y308 phosphopeptide Ac-QVEGIG(pY)DFIPTG-NH2 (peptide)
# peptide: Ac-QVEGIG[pY]DFIPTG-NH2
# SMILES: CC[C@H](C)[C@H](NC(=O)CNC(=O)[C@H](CCC(=O)O)NC(=O)[C@@H](NC(=O)[C@H](CCC(N)=O)NC(C)=O)C(C)C)C(=O)NCC(=O)N[C@@H](Cc1ccc(OP(=O)(O)O)cc1)C(=O)N[C@@H](CC(=O)O)C(=O)N[C@@H](Cc1ccccc1)C(=O)N[C@H](C(=O)N1CCC[C@H]1C(=O)N[C@H](C(=O)NCC(N)=O)[C@@H](C)O)[C@@H](C)CC
# notes: as for B1
# B4: CBS_Y308_G307S phosphopeptide Ac-QVEGIS(pY)DFIPTG-NH2 (peptide)
# peptide: Ac-QVEGIS[pY]DFIPTG-NH2
# SMILES: CC[C@H](C)[C@H](NC(=O)CNC(=O)[C@H](CCC(=O)O)NC(=O)[C@@H](NC(=O)[C@H](CCC(N)=O)NC(C)=O)C(C)C)C(=O)N[C@@H](CO)C(=O)N[C@@H](Cc1ccc(OP(=O)(O)O)cc1)C(=O)N[C@@H](CC(=O)O)C(=O)N[C@@H](Cc1ccccc1)C(=O)N[C@H](C(=O)N1CCC[C@H]1C(=O)N[C@H](C(=O)NCC(N)=O)[C@@H](C)O)[C@@H](C)CC
# notes: as for B1
# What was measured:
# Fer kinase domain = experiment: pTyr-Var library bacterial peptide display kinase screen (enrichment scores); type: biochemical, mouse; details: sheet "Fer";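 also: log2 fold change in enrichment of variant over reference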
# c-Abl kinase domain = target: T1, c-Abl kinase domain (Mus musculus, UniProt P00520); experiment: as above; type: biochemical; details: fig5-data2, sheet "Abl"; Screen for the variant/reference peptide pair, pTyr-Var library;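 also: log2 fold change in enrichment of variant over reference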
# T1 sequence (P00520 242-493 limits assumed): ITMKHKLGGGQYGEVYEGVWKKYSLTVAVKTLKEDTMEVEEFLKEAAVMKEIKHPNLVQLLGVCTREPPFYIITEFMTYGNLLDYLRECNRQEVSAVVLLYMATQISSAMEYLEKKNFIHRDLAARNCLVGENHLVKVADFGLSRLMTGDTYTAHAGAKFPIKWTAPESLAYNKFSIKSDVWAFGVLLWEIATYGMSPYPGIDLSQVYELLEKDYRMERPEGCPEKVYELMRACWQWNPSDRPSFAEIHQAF
# EPHB2 kinase domain = experiment: as above; type: biochemical, human; details: sheet EPHB2;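 also: log2 fold change in enrichment of variant over reference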
# EPHB1 kinase domain = experiment: as above; type: biochemical, human; details: for Screen: sheet EPHB1, effect of the variant peptide relative to its reference peptide in the pTyr-Var library screen (enrichment scores); for Screen (variant relative to reference peptide, measured in the pTyr-Var library screen): sheet "EPHB1", variant seq vs reference seq, bacterial peptide display enrichment
# c-Src kinase domain [1] = target: T2, c-Src kinase domain (Homo sapiens, UniProt P12931); experiment: as above; type: biochemical; details: sheet "Src"
# c-Src kinase domain [2] = target: T2, c-Src kinase domain; experiment: ADP-Quest continuous fluorimetric kinase assay (Michaelis-Menten parameters and initial rates); type: biochemical; details: c-Src kinase domain 10 nM, 100 μM ATP, 37 °C, three to five replicates, error = standard error of global Michaelis-Menten fit
# [3] = target: human c-Src SH2 domain (residues 143-250) (human, UniProt P12931-1 143-250, biotin on the Avi tag (co-expression with the biotin ligase BirA)); experiment: fluorescence polarisation; competition: unlabeled phosphopeptide serially diluted against 30 nM fluorescent peptide and 240 nM (1.5 x KD) c-Src SH2; same buffer; 25 °C; cubic binding equation; details: both partners purified
# [4] = value of the variant peptide against its reference peptide in the pTyr-Var library screen with Fer
# [5] = effect of variant peptide relative to its reference peptide in the pTyr-Var library screen (enrichment scores)
# [6] = effect of the variant peptide relative to its reference peptide in the pTyr-Var library screen
# [7] = variant peptide relative to its reference peptide, pTyr-Var library screen enrichment
# [8] = effect of the variant relative to its reference peptide in the pTyr-Var library screen
# [9] = variant peptide versus its reference peptide in the pTyr-Var library screen
Molecule,Screen (Fer kinase domain; [4]),Screen (EPHB2 kinase domain; [5]),Screen (EPHB1 kinase domain),Screen (c-Src kinase domain [1]; [6]),other results
LNGDRYFKGIV [DCX_Y64_R59L],2.021,1.457,2.112,–,Screen (c-Abl kinase domain): 0.06367
NKFTTYLPWLP [C9orf24_Y126_R129W_YF],4.402,3.885,3.061,3.427,–
NVVQEYERVII [NPHS2_Y131_K126N],0.1682,-0.3645,-0.6061,–,–
ENGPFYASFPP [GDAP2_Y488_T489A_YF],0.7376,2.037,1.693,0.1608,–
NREGVYTDFAP [TGFBI_Y537_V539D],–,–,–,–,"Screen (Fer kinase domain; [7]): -1.802; Screen (EPHB2 kinase domain; [8]): -1.696; Screen (c-Src kinase domain [1]; [9]): -0.2611; Screen (variant relative to reference peptide, measured in the pTyr-Var library screen) (EPHB1 kinase domain): -2.047"
QPSALYEDRFL [ASS1_Y83_S79P_YF],0.05915,0.0303,-0.4777,-0.4742,–
"Ac-GAEEEIYGIFGAKKKG-NH2 [SrcTide (2014), previously reported c-Src consensus substrate (Deng et al., 2014)]",–,–,–,–,Km (c-Src kinase domain [2]): 7 ± 3 µM; kcat (c-Src kinase domain [2]): 1.8±0.1 s^–1
PLEGEYFTLQI [TP53_Y327_D324E],–,–,–,–,"Screen (Fer kinase domain; [7]): 1.311; Screen (EPHB2 kinase domain; [8]): 1.812; Screen (c-Src kinase domain [1]; [9]): 0.9967; Screen (variant relative to reference peptide, measured in the pTyr-Var library screen) (EPHB1 kinase domain): 1.418"
ISSLLYELLEE [TRPC6_Y896_R895L],–,–,–,–,"Screen (Fer kinase domain; [7]): 3.789; Screen (EPHB2 kinase domain; [8]): 3.042; Screen (c-Src kinase domain [1]; [9]): 3.086; Screen (variant relative to reference peptide, measured in the pTyr-Var library screen) (EPHB1 kinase domain): 3.527"
HNMPIYEGFAL [ACTA1_Y168_V165M_YF],0.2696,0.1725,0.09959,0.3248,Screen (c-Abl kinase domain): -1.455
HLVLNYGVCFC [JAK2_Y613_V617F],–,0.8396,0.008865,–,Screen (c-Abl kinase domain): 1.962
QNTVDYFDLFG [PTPN11_Y62_G60V_YF],–,-4.099,-3.39,–,Screen (c-Src kinase domain [1]; [9]): -1.317
PFTRNYFVWAV [CYBA_Y87_R90W_YF],2.258,2.204,3.209,–,Screen (c-Abl kinase domain): 0.4523
LTTEAYEWEPC [ELMOD3_Y61_R66C],1.258,1.193,1.595,2.164,–
VDTGVYAVPPP [BCAR1_Y410_S407T],0.101,0.0652,0.1474,-0.01564,–
QTPVLYTMLDH [MPZ_Y220_A221T],0.203,-2.33,-1.287,-0.5854,–
GRKTLYSFFSP [UNG_Y8_Q4R],–,–,–,–,"Screen (Fer kinase domain; [7]): -1.21; Screen (EPHB2 kinase domain; [8]): -1.763; Screen (c-Src kinase domain [1]; [9]): -1.198; Screen (variant relative to reference peptide, measured in the pTyr-Var library screen) (EPHB1 kinase domain): -1.828"
LKDEDYLKDTV [HAUS3_Y582_I586T],–,0.5716,0.8437,–,–
HNVPIYEGFGL [ACTA1_Y168_A172G_YF],-0.2533,0.031,0.1073,-0.3085,Screen (c-Abl kinase domain): -0.8833
RQSTLYSFFPT [MSH6_Y8_K13T],1.758,0.1224,-0.1515,-0.09567,–
KQQEIYQEVTQ [CD209_Y239_L242V],1.048,0.564,0.2667,-0.1121,–
FRSSLYSLMET [MYO5C_Y633_L634S],3.791,1.684,2.366,–,Screen (c-Src kinase domain [1]; [9]): 2.978
ADAGMYGVLPW [PLP1_Y207_R205G],1.986,1.359,0.87,–,Screen (c-Src kinase domain [1]; [9]): -0.01805
INPIIYAFVVE [CCR5_Y297_G301V],-1.367,-1.294,-1.262,-0.9018,–
VVQGIYGFHHH [UFSP2_Y285_Y290H_YF],–,–,–,–,"Screen (Fer kinase domain; [7]): -0.4799; Screen (EPHB2 kinase domain; [8]): -2.017; Screen (c-Src kinase domain [1]; [9]): 0.2882; Screen (variant relative to reference peptide, measured in the pTyr-Var library screen) (EPHB1 kinase domain): -1.444"
B1,–,–,–,–,binding result [3]: binds
B2,–,–,–,–,binding result [3]: binds
B3,–,–,–,–,binding result [3]: binds
B4,–,–,–,–,binding result [3]: binds
